According to patent US4230705A, “6-Phenyl-1,2,4-triazolo[4,3-b]pyridazines and their uses in treating anxiety” (American Cyanamid Company, priority 1976, dated 1980):

How the values were obtained:
[1] = tested on: Clonic Seizures Caused By Pentylenetetrazole; test: Protection against clonic seizures caused by pentylenetetrazole in rats; assay type: in vivo; details: Rattus norvegicus; oral, 2% starch vehicle; pentylenetetrazole 21 to 23 mg./kg. intravenously at estimated time of peak effect; protection of 50% of rats; read-out: Medium Effective Oral Dose mg./kg. ED50 (converted)
Method: The anti-anxiety properties of the novel compounds of the present invention have been established in a test which indicates anxiolytic activity by the measure of protection from convulsions resulting from the administration of pentylenetetrazole. Graded dose levels of the compounds of this invention were administered orally, in a 2% starch vehicle, to groups of at least 5 rats. At the estimated time of peak effect, the rats were treated intravenously with pentylenetetrazole at a dose of 21 to 23 mg./kg. of body weight. This dose is estimated to cause clonic seizures in 99% of unprotected rats. The effective dose (ED50) of the test compound for protection of 50% of the animals is calculated by the method of D. H. Finney in "Statistical Methods in Biological Assay", Second Edition, Hafner Publishing Co., New York, 1964, pp. 456-457. Representative results are given in Table I which follows in comparison with chlordiazepoxide or meprobamate, which were tested in exactly the same manner. It has been reported [R. T. Hill and D. H. Tedeschi, "Animal Testing and Screening Procedures in Evaluating Psychotropic Drugs" in "An Introduction to Psychopharmacology", Eds. R. R. Rech and K. E. Moore, Raven Press, New York, pp. 237-288 (1971)] that there is a high degree of correlation between antagonism of pentylenetetrazole seizures in rats and anti-anxiety effects in higher warm-blooded animals.

[2] = tested on: conflict situation in rats; test: Non-conditioned passive avoidance (conflict) procedure in rats; assay type: in vivo, Sprague-Dawley rats; details: Rattus norvegicus; oral, 2% starch vehicle; 9 or more shocks in 5 minute test period; rats deprived of water 48 hours and food 24 hours; read-out: Median Effective Dose (ED50 mg./kg.)
Method: Another test which has been used to assess anti-anxiety effects is a non-conditioned passive avoidance procedure described by J. R. Vogel, B. Beer and D. E. Clody, "A Simple and Reliable Conflict Procedure for Testing Anti-Anxiety Agents", Psychopharmacologia, Vol. 21, pp. 1-7 (1971). A conflict situation is induced in rats by a modification of this method. To groups of six naive Sprague-Dawley rats (200-220 grams), previously deprived of water for forty-eight hours and food for 24 hours, are administered graded oral doses of test compound suspended in 2% starch vehicle also containing 2 drops of polyethylene glycol and polysorbate 80, or vehicle alone (controls). At the time of peak effect each rat is placed in a plexiglass box fitted with a drinkometer circuit connected between the stainless steel grid floor and a stainless steel drinking tube inserted in a hole in one of the walls of the box. […] The number of shocks received by the rat during a 5 minute test period is recorded. […]

Row | Compound | ED50 [1] [mg/kg] | ED50 [2] [mg/kg]
1 | CCCC(C)(COC(N)=O)COC(N)=O [Meprobamate] | 22 | 
2 | Cc1nnc2ccc(-c3ccccc3)nn12 [3-methyl-6-phenyl-1,2,4-triazolo[4,3-b]pyridazine] | 3 | 100
3 | c1ccc(-c2ccc3nncn3n2)cc1 [6-phenyl-1,2,4-triazolo[4,3-b]pyridazine] | 9.5 | 
4 | CNC1=Nc2ccc(Cl)cc2C(c2ccccc2)=[N+]([O-])C1 [Chlordiazepoxide] | 2.5 | 9.6
